Strand notation (5' to 3'): a small letter for the sugar, then the base; units joined by * are phosphorothioate-linked, units joined directly phosphodiester-linked; [ ] holds rarer units or linkages, { } end groups; capitals alone tell only the bases. e = 2'-O-(2-methoxyethyl) (MOE); k = constrained ethyl (cEt); [5mC] = 5-methylcytosine; d = 2'-deoxy (DNA)
System: human PKK mRNA
Assay: Antisense inhibition of human PKK mRNA in HepaRG cells, 1,000 nM, MOE/deoxy/cEt oligonucleotides (Example 3)
Type: cell-based
Conditions: HepaRG cells, 1,000 nM antisense oligonucleotide, human PKK mRNA
Outline: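 HepaRG cells at 20,000 per well electroporated with 1,000 nM 16-mer MOE/cEt/deoxy gapmers (phosphorothioate, 5-methylcytosine). After about 24 h, PKK mRNA measured by qRT-PCR with primer probe set RTS3454, normalized to RIBOGREEN total RNA. Reported as percent inhibition versus untreated cells.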

Row | Substance | % inhibition (Table 27) | % inhibition (Table 30)
1 | 548377 (eG*eT*kG*dT*dG*d[5mC]*dT*dG*dA*dG*dG*dT*dT*kT*kG*e[5mC]; antisense) [compound 548377] | 80% | –
2 | 548378 (eG*e[5mC]*kA*dA*dG*dA*dT*dG*d[5mC]*dA*dT*dG*d[5mC]*kA*kG*e[5mC]; antisense) [compound 548378] | 49% | –
3 | 548379 (eA*eT*k[5mC]*dG*dA*dA*d[5mC]*dT*d[5mC]*dT*dG*d[5mC]*dT*kT*kG*eA; antisense) [compound 548379] | 44% | –
4 | 548380 (eG*e[5mC]*k[5mC]*d[5mC]*dA*dG*dT*dT*dT*dT*dG*dG*d[5mC]*kA*kA*e[5mC]; antisense) [compound 548380] | 7% | –
5 | 548381 (e[5mC]*e[5mC]*k[5mC]*dA*d[5mC]*dT*dA*d[5mC]*d[5mC]*dA*dT*dT*dT*kG*kG*eG; antisense) [compound 548381] | 0% | –
6 | 548382 (eG*eA*kG*d[5mC]*dA*dA*dA*dT*dA*d[5mC]*dA*dG*dT*k[5mC]*k[5mC]*eA; antisense) [compound 548382] | – | 19%
7 | 548383 (eG*eT*k[5mC]*dT*d[5mC]*dG*dA*dT*dG*dG*d[5mC]*dA*dA*kG*k[5mC]*eT; antisense) [compound 548383] | – | 49%
8 | 548384 (e[5mC]*eT*k[5mC]*dA*d[5mC]*d[5mC]*dG*dG*dT*dA*d[5mC]*dT*d[5mC]*kT*kG*e[5mC]; antisense) [compound 548384] | – | 49%
9 | 548385 (eT*e[5mC]*k[5mC]*dT*dG*dG*dA*dG*dG*d[5mC]*dA*d[5mC]*d[5mC]*kA*kA*eT; antisense) [compound 548385] | – | 0%
10 | 548386 (eA*eG*k[5mC]*d[5mC]*d[5mC]*dT*dG*dT*dT*dT*dG*dG*dT*kT*kT*eT; antisense) [compound 548386] | – | 0%
11 | 548387 (eT*eG*kA*dA*dG*dG*dG*d[5mC]*dG*dA*dG*dG*d[5mC]*kG*k[5mC]*eA; antisense) [compound 548387] | – | 22%
12 | 548388 (eA*eA*kG*dA*dG*dG*dA*dT*dG*dT*d[5mC]*dA*dG*kG*k[5mC]*eT; antisense) [compound 548388] | – | 4%
13 | 548389 (eT*eT*kG*dA*dG*dG*dA*dA*dA*dG*dA*d[5mC]*d[5mC]*kT*kG*e[5mC]; antisense) [compound 548389] | – | 11%
14 | 548390 (eG*e[5mC]*kT*dG*dA*dG*dT*dG*dT*dG*dA*d[5mC]*dT*kT*kA*eA; antisense) [compound 548390] | – | 43%
15 | 548391 (eG*eT*kA*d[5mC]*dA*dT*dG*dA*d[5mC]*dT*d[5mC]*d[5mC]*dA*kG*kT*eG; antisense) [compound 548391] | – | 34%
16 | 548392 (eG*eT*kA*dG*dA*dG*d[5mC]*dA*dT*dG*dG*dA*dG*k[5mC]*kG*eA; antisense) [compound 548392] | – | 31%
17 | 548393 (e[5mC]*eG*k[5mC]*dT*dT*d[5mC]*dA*dG*dG*dA*dA*dA*dG*k[5mC]*kG*eA; antisense) [compound 548393] | – | 26%
18 | 548394 (eG*eG*k[5mC]*dA*dG*dG*dA*dG*dA*d[5mC]*dT*d[5mC]*d[5mC]*kG*kT*eG; antisense) [compound 548394] | – | 25%
19 | 548395 (eA*eT*k[5mC]*d[5mC]*dT*dT*d[5mC]*d[5mC]*d[5mC]*d[5mC]*dT*d[5mC]*dG*k[5mC]*kA*eA; antisense) [compound 548395] | – | 0%
20 | 548396 (eT*eA*kA*dT*dG*dA*dG*dT*dG*dG*dG*dT*dT*kA*kG*eG; antisense) [compound 548396] | – | 0%
21 | 548397 (eG*eG*kA*dG*d[5mC]*dA*dG*dT*dG*d[5mC]*dA*dG*dG*kT*kA*eA; antisense) [compound 548397] | – | 1%
22 | 548398 (eA*eT*kA*dG*dG*d[5mC]*dA*dA*dT*dT*dG*dT*dT*k[5mC]*k[5mC]*eT; antisense) [compound 548398] | – | 55%
23 | 548399 (eA*eG*kT*d[5mC]*d[5mC]*dT*dA*d[5mC]*dA*dA*dT*dT*dA*k[5mC]*k[5mC]*eA; antisense) [compound 548399] | – | 11%
24 | 548400 (eG*eG*kG*d[5mC]*dT*d[5mC]*d[5mC]*dT*dA*dT*dT*d[5mC]*d[5mC]*kA*k[5mC]*e[5mC]; antisense) [compound 548400] | – | 13%
25 | 548401 (eG*e[5mC]*k[5mC]*dA*dG*d[5mC]*dT*dA*dT*dG*dG*dG*dA*kA*k[5mC]*eA; antisense) [compound 548401] | – | 71%
26 | 548402 (e[5mC]*e[5mC]*k[5mC]*d[5mC]*dA*dT*d[5mC]*dT*d[5mC]*dG*dA*dA*dG*k[5mC]*k[5mC]*e[5mC]; antisense) [compound 548402] | – | 45%
27 | 548403 (eG*eA*kG*dT*dA*d[5mC]*dA*dT*dT*dG*dG*dG*d[5mC]*k[5mC]*k[5mC]*eA; antisense) [compound 548403] | – | 25%

Row | Substance | % inhibition (Table 27) | % inhibition (Table 30)
28 | 548404 (eG*eA*kG*d[5mC]*d[5mC]*dT*dT*d[5mC]*d[5mC]*dG*d[5mC]*d[5mC]*dT*k[5mC]*kT*e[5mC]; antisense) [compound 548404] | – | 37%
29 | 548405 (e[5mC]*eG*kG*dA*d[5mC]*d[5mC]*dT*dT*d[5mC]*dA*dT*d[5mC]*dT*kT*k[5mC]*eA; antisense) [compound 548405] | – | 35%
30 | 548406 (eT*e[5mC]*kT*dA*dG*dA*dG*dG*d[5mC]*d[5mC]*dG*d[5mC]*d[5mC]*kT*kG*e[5mC]; antisense) [compound 548406] | – | 0%
31 | 548407 (e[5mC]*e[5mC]*kT*dA*dT*dA*dA*d[5mC]*dT*dG*d[5mC]*dT*dG*k[5mC]*kT*e[5mC]; antisense) [compound 548407] | – | 24%
32 | 548408 (antisense eT*eA*kT*d[5mC]*dA*d[5mC]*dT*dG*dT*dA*d[5mC]*dT*dA*kG*kT*eT) [compound 548408] | – | 47%
33 | 548411 (antisense e[5mC]*eA*kG*dT*dA*dT*d[5mC]*dA*d[5mC]*dT*dG*dT*dA*k[5mC]*kT*eA) [compound 548411] | – | 72%
34 | 548412 (antisense eT*eA*kA*d[5mC]*dA*dG*dT*dA*dT*d[5mC]*dA*d[5mC]*dT*kG*kT*eA) [compound 548412] | – | 17%
35 | 548413 (antisense e[5mC]*eT*kA*dA*d[5mC]*dA*dG*dT*dA*dT*d[5mC]*dA*d[5mC]*kT*kG*eT) [compound 548413] | – | 55%
36 | 548414 (antisense eT*e[5mC]*kT*dA*dA*d[5mC]*dA*dG*dT*dA*dT*d[5mC]*dA*k[5mC]*kT*eG) [compound 548414] | – | 20%
37 | 548415 (antisense eA*eT*kA*dA*d[5mC]*dT*d[5mC]*dT*dA*dA*d[5mC]*dA*dG*kT*kA*eT) [compound 548415] | – | 0%
38 | 548416 (antisense e[5mC]*eT*kA*dT*dA*dA*d[5mC]*dT*d[5mC]*dT*dA*dA*d[5mC]*kA*kG*eT) [compound 548416] | – | 9%
39 | 548417 (antisense eA*e[5mC]*kT*dG*dT*d[5mC]*d[5mC]*dT*dA*dT*dA*dA*d[5mC]*kT*k[5mC]*eT) [compound 548417] | – | 24%
40 | 548418 (antisense eT*eA*kT*dA*dT*d[5mC]*dA*d[5mC]*dT*dG*dT*d[5mC]*d[5mC]*kT*kA*eT) [compound 548418] | – | 39%
41 | 548419 (antisense e[5mC]*e[5mC]*kT*dA*dT*dA*dT*d[5mC]*dA*d[5mC]*dT*dG*dT*k[5mC]*k[5mC]*eT) [compound 548419] | – | 52%
42 | 548420 (antisense eT*e[5mC]*k[5mC]*dT*dA*dT*dA*dT*d[5mC]*dA*d[5mC]*dT*dG*kT*k[5mC]*e[5mC]) [compound 548420] | – | 58%
43 | 548421 (antisense e[5mC]*eA*k[5mC]*dT*dG*dT*d[5mC]*d[5mC]*dT*dA*dT*dA*dT*k[5mC]*kA*e[5mC]) [compound 548421] | – | 56%
44 | 548423 (antisense eA*eG*kT*dA*dT*d[5mC]*dA*d[5mC]*dT*dG*dT*d[5mC]*d[5mC]*kT*kA*eT) [compound 548423] | – | 72%
45 | 548426 (antisense eT*eA*kT*dA*dA*d[5mC]*dA*dG*dT*dA*dT*d[5mC]*dA*k[5mC]*kT*eG) [compound 548426] | – | 14%
46 | 548427 (antisense e[5mC]*eT*kA*dT*dA*dA*d[5mC]*dA*dG*dT*dA*dT*d[5mC]*kA*k[5mC]*eT) [compound 548427] | – | 24%
47 | 548428 (antisense eT*eA*kA*d[5mC]*dT*dA*dT*dA*dA*d[5mC]*dA*dG*dT*kA*kT*e[5mC]) [compound 548428] | – | 0%
48 | 548429 (antisense eT*eA*kT*dA*dA*d[5mC]*dT*dA*dT*dA*dA*d[5mC]*dA*kG*kT*eA) [compound 548429] | – | 0%
49 | 548430 (antisense e[5mC]*e[5mC]*kT*dA*dT*dA*dA*d[5mC]*dT*dA*dT*dA*dA*k[5mC]*kA*eG) [compound 548430] | – | 21%
50 | 548431 (antisense eT*eA*k[5mC]*d[5mC]*dT*dA*dT*dA*dA*d[5mC]*dT*d[5mC]*dT*kA*kA*e[5mC]) [compound 548431] | – | 9%
51 | 548432 (antisense eA*e[5mC]*kT*dG*dT*dA*d[5mC]*d[5mC]*dT*dA*dT*dA*dA*k[5mC]*kT*e[5mC]) [compound 548432] | – | 43%
52 | 548433 (antisense eT*eA*kT*d[5mC]*dA*d[5mC]*dT*dG*dT*dA*d[5mC]*d[5mC]*dT*kA*kT*eA) [compound 548433] | – | 33%
53 | 548434 (antisense eA*e[5mC]*kA*dA*dT*dA*dT*d[5mC]*dA*d[5mC]*dT*dG*dT*kA*k[5mC]*e[5mC]) [compound 548434] | – | 63%
54 | 548435 (antisense eA*eA*k[5mC]*dA*dA*dT*dA*dT*d[5mC]*dA*d[5mC]*dT*dG*kT*kA*e[5mC]) [compound 548435] | – | 19%

From US11840686B2, “Modulation of prekallikrein (PKK) expression” (Ionis Pharmaceuticals, Inc., priority 2013, dated 2023)
